Test results from the NIST ThermoML archive (doi:10.1021/je1003065).
± gives the expanded uncertainty stated by the source.

Experiment: mn = molality of the nth substance listed, in mol/kg
Settings: Liquid, Vibrating tube method

[Br-].[Li+] [lithium bromide] + CCO
Settings | mass density [kg/m3]
313.16 K, 69943 kPa, m1 = 2.272 | 954.83 ± 1.9
313.16 K, 70035 kPa, m1 = 0.2335 | 838.62 ± 1.8
313.16 K, 80024 kPa, m1 = 2.833 | 989.48 ± 2
313.16 K, 99649 kPa, m1 = 1.462 | 925.34 ± 1.9
313.17 K, 1995 kPa, m1 = 3.368 | 968.15 ± 1.9
313.17 K, 5344 kPa, m1 = 3.368 | 970.84 ± 1.9
313.17 K, 10286 kPa, m1 = 3.368 | 974.66 ± 1.9
313.17 K, 19807 kPa, m1 = 3.368 | 981.61 ± 2
313.17 K, 29957 kPa, m1 = 3.368 | 988.47 ± 2
313.17 K, 40021 kPa, m1 = 2.833 | 967.43 ± 1.9
313.17 K, 40159 kPa, m1 = 3.368 | 994.86 ± 2
313.17 K, 49914 kPa, m1 = 3.368 | 1000.58 ± 2
313.17 K, 80160 kPa, m1 = 2.272 | 960.11 ± 1.9
313.17 K, 89963 kPa, m1 = 2.272 | 965.03 ± 1.9
313.17 K, 99603 kPa, m1 = 3.368 | 1026.1 ± 2.1
313.18 K, 59836 kPa, m1 = 3.368 | 1006.06 ± 2
313.18 K, 69925 kPa, m1 = 3.368 | 1011.36 ± 2
313.18 K, 89986 kPa, m1 = 3.368 | 1021.4 ± 2.1
313.18 K, 100029 kPa, m1 = 2.272 | 969.91 ± 2
313.19 K, 1459 kPa, m1 = 0.5972 | 812.65 ± 1.6
313.2 K, 79843 kPa, m1 = 3.368 | 1016.39 ± 2
323.13 K, 5012 kPa, m1 = 0.2335 | 784.23 ± 1.6
323.13 K, 79954 kPa, m1 = 0.5972 | 859.95 ± 1.8
323.14 K, 10001 kPa, m1 = 0.2335 | 788.63 ± 1.6
323.14 K, 19956 kPa, m1 = 2.833 | 946.78 ± 1.9
323.14 K, 29926 kPa, m1 = 3.368 | 981.06 ± 2
323.14 K, 39945 kPa, m1 = 2.272 | 930.75 ± 1.9
323.14 K, 39954 kPa, m1 = 1.462 | 885.66 ± 1.8
323.14 K, 49912 kPa, m1 = 0.2335 | 819.58 ± 1.7
323.14 K, 69926 kPa, m1 = 2.833 | 977.81 ± 2
323.14 K, 70002 kPa, m1 = 1.462 | 904.07 ± 1.8
323.14 K, 70002 kPa, m1 = 3.368 | 1004.85 ± 2
323.15 K, 1023 kPa, m1 = 2.833 | 931.78 ± 1.9
323.15 K, 1026 kPa, m1 = 0.5972 | 803.74 ± 1.6
323.15 K, 1032 kPa, m1 = 2.272 | 901.6 ± 1.8
323.15 K, 1032 kPa, m1 = 3.368 | 959.14 ± 1.9
323.15 K, 1035 kPa, m1 = 1.462 | 855.48 ± 1.7
323.15 K, 1203 kPa, m1 = 0.9499 | 825.48 ± 1.7
323.15 K, 2012 kPa, m1 = 0.2335 | 781.53 ± 1.6
323.15 K, 5014 kPa, m1 = 3.368 | 962.48 ± 1.9
323.15 K, 5021 kPa, m1 = 0.5972 | 807.24 ± 1.6
323.15 K, 5021 kPa, m1 = 2.833 | 935.15 ± 1.9
323.15 K, 5024 kPa, m1 = 2.272 | 905.02 ± 1.8
323.15 K, 5106 kPa, m1 = 1.462 | 859.08 ± 1.7
323.15 K, 5451 kPa, m1 = 0.9499 | 829.11 ± 1.7
323.15 K, 9995 kPa, m1 = 2.833 | 939.18 ± 1.9
323.15 K, 10002 kPa, m1 = 2.272 | 909.13 ± 1.8
323.15 K, 10023 kPa, m1 = 0.5972 | 811.53 ± 1.6
323.15 K, 10026 kPa, m1 = 0.9499 | 832.95 ± 1.7
323.15 K, 10065 kPa, m1 = 1.462 | 863.3 ± 1.7
323.15 K, 19957 kPa, m1 = 0.9499 | 840.97 ± 1.7
323.15 K, 19957 kPa, m1 = 3.368 | 974.07 ± 1.9
323.15 K, 20023 kPa, m1 = 0.2335 | 797.12 ± 1.6
323.15 K, 29784 kPa, m1 = 2.833 | 953.72 ± 1.9
323.15 K, 29928 kPa, m1 = 0.9499 | 848.61 ± 1.7
323.15 K, 29975 kPa, m1 = 1.462 | 878.73 ± 1.8
323.15 K, 29978 kPa, m1 = 0.5972 | 827.54 ± 1.7
323.15 K, 29986 kPa, m1 = 2.272 | 924.09 ± 1.9
323.15 K, 39784 kPa, m1 = 0.9499 | 855.75 ± 1.7
323.15 K, 39926 kPa, m1 = 0.2335 | 812.55 ± 1.7
323.15 K, 39984 kPa, m1 = 3.368 | 987.61 ± 2
323.15 K, 49921 kPa, m1 = 2.272 | 937 ± 1.9
323.15 K, 49926 kPa, m1 = 1.462 | 892.13 ± 1.8
323.15 K, 49928 kPa, m1 = 0.9499 | 862.68 ± 1.8
323.15 K, 50001 kPa, m1 = 0.5972 | 841.84 ± 1.7
323.15 K, 50021 kPa, m1 = 2.833 | 966.58 ± 1.9
323.15 K, 59924 kPa, m1 = 3.368 | 999.37 ± 2
323.15 K, 59926 kPa, m1 = 0.2335 | 825.76 ± 1.7
323.15 K, 59957 kPa, m1 = 1.462 | 898.25 ± 1.8
323.15 K, 59986 kPa, m1 = 2.833 | 972.34 ± 1.9
323.15 K, 60024 kPa, m1 = 0.9499 | 869.15 ± 1.8
323.15 K, 69794 kPa, m1 = 0.9499 | 875 ± 1.8
323.15 K, 69794 kPa, m1 = 2.272 | 948.43 ± 1.9
323.15 K, 69923 kPa, m1 = 0.5972 | 854.32 ± 1.8
323.15 K, 79923 kPa, m1 = 1.462 | 909.56 ± 1.9
323.15 K, 79924 kPa, m1 = 0.2335 | 837.48 ± 1.8
323.15 K, 79926 kPa, m1 = 3.368 | 1010.05 ± 2
323.15 K, 79935 kPa, m1 = 0.9499 | 880.66 ± 1.8
323.15 K, 79953 kPa, m1 = 2.272 | 953.9 ± 1.9
323.15 K, 79956 kPa, m1 = 2.833 | 983.13 ± 2
323.15 K, 89924 kPa, m1 = 3.368 | 1015.15 ± 2
323.15 K, 89925 kPa, m1 = 0.9499 | 885.81 ± 1.8
323.15 K, 89926 kPa, m1 = 2.272 | 959.13 ± 1.9
323.15 K, 89956 kPa, m1 = 0.2335 | 843.04 ± 1.8
323.15 K, 89958 kPa, m1 = 2.833 | 988.29 ± 2
323.15 K, 90021 kPa, m1 = 0.5972 | 865.14 ± 1.8
323.15 K, 99678 kPa, m1 = 2.833 | 993.25 ± 2
323.15 K, 99745 kPa, m1 = 0.5972 | 869.74 ± 1.9
323.15 K, 99956 kPa, m1 = 3.368 | 1020.21 ± 2.1
323.15 K, 99957 kPa, m1 = 1.462 | 920.17 ± 1.9
323.15 K, 99965 kPa, m1 = 0.2335 | 847.91 ± 1.8
323.15 K, 99969 kPa, m1 = 0.9499 | 890.57 ± 1.9
323.15 K, 99985 kPa, m1 = 2.272 | 964.32 ± 2
323.16 K, 10058 kPa, m1 = 3.368 | 966.55 ± 1.9
323.16 K, 19945 kPa, m1 = 0.5972 | 819.71 ± 1.7
323.16 K, 19956 kPa, m1 = 2.272 | 916.87 ± 1.8
323.16 K, 20003 kPa, m1 = 1.462 | 871.29 ± 1.8
323.16 K, 29921 kPa, m1 = 0.2335 | 805.03 ± 1.6
323.16 K, 39928 kPa, m1 = 2.833 | 960.39 ± 1.9
323.16 K, 49957 kPa, m1 = 3.368 | 993.67 ± 2
323.16 K, 60002 kPa, m1 = 2.272 | 942.94 ± 1.9
323.16 K, 70004 kPa, m1 = 0.2335 | 831.8 ± 1.8
323.16 K, 89956 kPa, m1 = 1.462 | 914.93 ± 1.9
323.17 K, 39926 kPa, m1 = 0.5972 | 834.87 ± 1.7
323.18 K, 59974 kPa, m1 = 0.5972 | 848.31 ± 1.8
